From patent US11033539B2, “Compounds of formulas (VII), (VIII), (IX), (XI), (XII), (XIII), and (XIV) as muscarinic receptor 4(M4) antagonists for treating neurological diseases” (Neurocrine Biosciences, Inc., priority 2015, dated 2021)

How the values were obtained:
[1] = biological target: human M1 receptor (Homo sapiens (Human), UniProt P11229); assay: Radioligand (tritiated N-methylscopolamine) binding assay, M1; details: CHO cell membranes expressing human M1; 1.5 nM tritiated N-methylscopolamine; 90 min, 37° C.; read-out: Ki against M1 receptor (Table 21, M1)
Method in brief: (§1)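 Membranes came from recombinant CHO cells expressing human muscarinic subtypes and were incubated with compound and [3H]NMS (1.5 nM) in HEPES/NaCl/MgCl2/EDTA buffer, pH 7.4, at 37° C for 90 min. Twelve-point dose-response (printed 10–[…]). Filter-bound radioactivity was counted and Ki values derived.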

[2] = biological target: human M3 receptor (Homo sapiens (Human), UniProt P20309); assay: Radioligand (tritiated N-methylscopolamine) binding assay, M3; details: CHO cell membranes expressing human M3; 1.5 nM tritiated N-methylscopolamine; 90 min, 37° C.; read-out: Ki against M3 receptor (Table 21, M3)
Method in brief: as §1

[3] = biological target: human M5 receptor (Homo sapiens (Human), UniProt P08912); assay: Radioligand (tritiated N-methylscopolamine) binding assay, M5; details: CHO cell membranes expressing human M5; 1.5 nM tritiated N-methylscopolamine; 90 min, 37° C.; read-out: Ki against M5 receptor (Table 21, M5)
Method in brief: as §1

[4] = biological target: human M2 receptor (Homo sapiens (Human), UniProt P08172); assay: Radioligand (tritiated N-methylscopolamine) binding assay, M2; details: CHO cell membranes expressing human M2; 1.5 nM tritiated N-methylscopolamine; 90 min, 37° C.; read-out: Ki against M2 receptor (Table 21, M2)
Method in brief: as §1

[5] = biological target: human M4 receptor (Homo sapiens (Human), UniProt P08173); assay: Radioligand (tritiated N-methylscopolamine) binding assay, M4; details: Ki against the M4 receptor; membranes from CHO cells expressing human M4; tritiated N-methylscopolamine 1.5 nM; read-out: Ki
Method in brief: as §1

human M5 receptor, sequence (P08912 whole entry): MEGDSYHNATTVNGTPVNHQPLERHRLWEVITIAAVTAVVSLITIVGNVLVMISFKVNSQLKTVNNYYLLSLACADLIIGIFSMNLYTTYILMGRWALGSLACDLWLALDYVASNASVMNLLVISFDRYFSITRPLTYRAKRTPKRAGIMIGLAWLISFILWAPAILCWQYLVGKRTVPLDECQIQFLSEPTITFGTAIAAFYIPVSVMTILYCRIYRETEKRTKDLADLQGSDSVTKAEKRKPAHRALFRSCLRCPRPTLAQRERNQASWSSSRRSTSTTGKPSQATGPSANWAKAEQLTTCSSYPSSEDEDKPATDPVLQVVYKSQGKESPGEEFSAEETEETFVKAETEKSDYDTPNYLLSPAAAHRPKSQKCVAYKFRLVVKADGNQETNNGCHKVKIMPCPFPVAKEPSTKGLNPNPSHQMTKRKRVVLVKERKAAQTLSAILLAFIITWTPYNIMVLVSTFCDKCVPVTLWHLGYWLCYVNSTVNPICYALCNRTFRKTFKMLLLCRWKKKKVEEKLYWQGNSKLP
human M3 receptor, sequence (P20309 whole entry): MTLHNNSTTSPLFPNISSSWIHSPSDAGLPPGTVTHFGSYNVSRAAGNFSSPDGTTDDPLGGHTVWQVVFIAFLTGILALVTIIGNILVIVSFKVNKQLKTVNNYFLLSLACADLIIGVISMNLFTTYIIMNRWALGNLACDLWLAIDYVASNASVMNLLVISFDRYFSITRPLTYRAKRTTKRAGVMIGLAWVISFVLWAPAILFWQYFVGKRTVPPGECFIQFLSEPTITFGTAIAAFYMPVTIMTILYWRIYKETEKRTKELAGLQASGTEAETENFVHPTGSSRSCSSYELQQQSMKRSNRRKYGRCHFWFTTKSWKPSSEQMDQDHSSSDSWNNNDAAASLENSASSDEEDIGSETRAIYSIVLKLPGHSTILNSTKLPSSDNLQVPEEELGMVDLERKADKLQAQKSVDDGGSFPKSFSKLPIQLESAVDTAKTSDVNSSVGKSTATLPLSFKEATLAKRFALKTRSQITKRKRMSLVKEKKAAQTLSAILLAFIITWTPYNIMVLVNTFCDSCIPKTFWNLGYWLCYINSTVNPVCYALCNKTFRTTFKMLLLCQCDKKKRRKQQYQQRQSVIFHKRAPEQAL
human M4 receptor, sequence (P08173 whole entry): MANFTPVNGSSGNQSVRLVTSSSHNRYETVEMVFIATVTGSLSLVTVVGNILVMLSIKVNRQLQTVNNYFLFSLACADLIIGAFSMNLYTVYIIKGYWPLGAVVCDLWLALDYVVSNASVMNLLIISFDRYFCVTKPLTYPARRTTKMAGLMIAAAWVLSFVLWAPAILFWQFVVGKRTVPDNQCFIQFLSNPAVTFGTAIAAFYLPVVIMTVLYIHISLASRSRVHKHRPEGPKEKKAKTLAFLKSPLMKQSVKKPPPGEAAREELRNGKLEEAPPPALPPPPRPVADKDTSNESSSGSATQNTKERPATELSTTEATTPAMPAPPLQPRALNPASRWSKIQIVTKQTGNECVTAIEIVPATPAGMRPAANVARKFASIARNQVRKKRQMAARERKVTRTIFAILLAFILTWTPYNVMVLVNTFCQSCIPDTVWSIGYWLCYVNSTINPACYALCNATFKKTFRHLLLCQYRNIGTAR
human M1 receptor, sequence (P11229 whole entry): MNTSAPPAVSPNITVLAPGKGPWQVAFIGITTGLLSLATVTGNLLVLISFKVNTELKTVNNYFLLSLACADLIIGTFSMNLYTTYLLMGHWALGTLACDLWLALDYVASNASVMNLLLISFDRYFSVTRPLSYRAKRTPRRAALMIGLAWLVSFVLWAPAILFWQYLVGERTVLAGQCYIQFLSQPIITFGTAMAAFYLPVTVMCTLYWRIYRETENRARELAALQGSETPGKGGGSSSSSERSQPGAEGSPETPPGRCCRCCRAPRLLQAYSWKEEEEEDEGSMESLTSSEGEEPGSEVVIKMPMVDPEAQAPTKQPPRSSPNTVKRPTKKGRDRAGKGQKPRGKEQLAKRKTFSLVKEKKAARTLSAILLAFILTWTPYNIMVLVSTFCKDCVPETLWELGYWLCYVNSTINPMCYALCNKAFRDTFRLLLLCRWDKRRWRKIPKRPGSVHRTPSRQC
human M2 receptor, sequence (P08172 whole entry): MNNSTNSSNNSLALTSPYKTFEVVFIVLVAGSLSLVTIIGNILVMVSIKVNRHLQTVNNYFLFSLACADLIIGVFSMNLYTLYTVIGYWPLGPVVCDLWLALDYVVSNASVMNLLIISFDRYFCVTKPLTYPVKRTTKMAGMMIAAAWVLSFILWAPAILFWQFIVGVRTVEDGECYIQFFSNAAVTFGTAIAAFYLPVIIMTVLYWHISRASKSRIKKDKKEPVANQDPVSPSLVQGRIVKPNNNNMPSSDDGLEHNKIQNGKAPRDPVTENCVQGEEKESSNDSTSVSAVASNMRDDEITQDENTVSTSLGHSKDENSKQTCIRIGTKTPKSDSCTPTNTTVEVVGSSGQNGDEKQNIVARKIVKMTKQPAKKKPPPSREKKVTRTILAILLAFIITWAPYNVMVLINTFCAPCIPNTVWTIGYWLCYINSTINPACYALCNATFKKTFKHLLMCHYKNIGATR

| Ki [1] | Ki [2] | Ki [3] | Ki [4] | Ki [5] | Compound |
| --- | --- | --- | --- | --- | --- |
| 0.1 to 1 µM | 0.1 to 1 µM | 0.1 to 1 µM | 0.01 to 0.1 µM | < 0.01 µM | C[C@H]1CN(c2ccc(OC(F)(F)F)c(F)c2)CCN1C(=O)NCCC1CCN(Cc2ccccc2)CC1 [4-53, (2S)-N-[2-(1-benzylpiperidin-4-yl)ethyl]-4-[3-fluoro-4-(trifluoromethoxy)phenyl]-2-methylpiperazine-1-carboxamide] |
| 0.1 to 1 µM | > 1 µM | > 1 µM | 0.01 to 0.1 µM | < 0.01 µM | Cc1c(C(=O)NC[C@@H](O)C2CCN(Cc3ccccc3)CC2)cnc2cc(-c3cccc(C(F)(F)F)c3)nn12 [17-5, N-[(2S)-2-(1-benzylpiperidin-4-yl)-2-hydroxyethyl]-7-methyl-2-[3-(trifluoromethyl)phenyl]pyrazolo[1,5-a]pyrimidine-6-carboxamide] |
| > 1 µM | > 1 µM | > 1 µM | 0.1 to 1 µM | < 0.01 µM | C[C@@H]1CN(c2ccc(OC(F)(F)F)c(C#N)c2)CCN1C(=O)NC[C@H](O)C1CCN(Cc2ccccc2)CC1 [7-10, (2R)-N-[(2R)-2-(1-benzylpiperidin-4-yl)-2-hydroxyethyl]-4-[3-cyano-4-(trifluoromethoxy)phenyl]-2-methylpiperazine-1-carboxamide] |
| > 1 µM | > 1 µM | > 1 µM | 0.1 to 1 µM | < 0.01 µM | O=C(NCCC1CCN(Cc2ccccc2)CC1)C1CCN(c2cc(F)c(F)c(F)c2)CC1 [10-7, N-[2-(1-benzylpiperidin-4-yl)ethyl]-1-(3,4,5-trifluorophenyl)piperidine-4-carboxamide] |
| > 1 µM | > 1 µM | > 1 µM | 0.1 to 1 µM | < 0.01 µM | C[C@@H]1CN(c2cnc(C(F)(F)F)cn2)C[C@@H](C)N1C(=O)NCCC1CCN(Cc2ccccc2)CC1 [26-4, (2R,6R)-N-[2-(1-benzylpiperidin-4-yl)ethyl]-2,6-dimethyl-4-[5-(trifluoromethyl)pyrazin-2-yl]piperazine-1-carboxamide] |
| > 1 µM | > 1 µM | > 1 µM | > 1 µM | < 0.01 µM | N#Cc1cc(N2CCC(C(=O)NC[C@@H](O)C3CCN(Cc4ccccc4)CC3)CC2)ccc1F [10-58, N-[(2S)-2-(1-benzylpiperidin-4-yl)-2-hydroxyethyl]-1-(3-cyano-4-fluorophenyl)piperidine-4-carboxamide] |
| 0.1 to 1 µM | > 1 µM | > 1 µM | 0.1 to 1 µM | < 0.01 µM | O=C(NCCC1CCN(Cc2ccccc2)CC1CO)C1CCN(c2ccc(OC(F)(F)F)cc2)CC1 (centres unmarked) [9-62, N-{2-[1-benzyl-3-(hydroxymethyl)piperidin-4-yl]ethyl}-1-[4-(trifluoromethoxy)phenyl]piperidine-4-carboxamide] |
